In the supplement of paper PMC10307832:

Experiments:
Assay in all cases: relative viability (nuclei count vs DMSO), 5 days (fraction); higher = more cells survive
NCI-H23 = test system: NCI-H23
How it was run: (§1)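 Values are medians from duplicate plates. Each reflects relative viability, defined as the nuclei count of treated wells over that of vehicle wells. Lung cancer cell lines in 1536-well plates were pin-tool dosed one day after seeding with one drug alone or with a fixed anchor-drug dose plus five library-drug doses (not always all listed) in √10 steps, then fixed, stained and imaged at 4× after 5 days.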

NCI-H1793 = test system: NCI-H1793
How it was run: as §1

LCLC-103H = test system: LCLC-103H
How it was run: as §1

NCI-H2347 = test system: NCI-H2347
How it was run: as §1

PC-3 [JPC-3] = test system: PC-3 [JPC-3]
How it was run: as §1

NCI-H727 = test system: NCI-H727
How it was run: as §1

NCI-H2228 = test system: NCI-H2228
How it was run: as §1

SW 1573 = test system: SW 1573
How it was run: as §1

LCLC-97TM1 = test system: LCLC-97TM1
How it was run: as §1

NCI-H1650 = test system: NCI-H1650
How it was run: as §1

201T = test system: 201T
How it was run: as §1

HCC-44 = test system: HCC-44
How it was run: as §1

LU99A = test system: LU99A
How it was run: as §1

A-427 = test system: A-427
How it was run: as §1

NCI-H596 = test system: NCI-H596
How it was run: as §1

PC-14 = test system: PC-14
How it was run: as §1

SW 900 = test system: SW 900
How it was run: as §1

COR-L23 = test system: COR-L23
How it was run: as §1

LC-2-ad = test system: LC-2-ad
How it was run: as §1

LK-2 = test system: LK-2
How it was run: as §1

H3255 = test system: H3255
How it was run: as §1

NCI-H460 = test system: NCI-H460
How it was run: as §1

Work on `CCN(CC)CCCCNc1ncc2cc(-c3cc(OC)cc(OC)c3)c(NC(=O)NC(C)(C)C)nc2n1` + CC(=O)Nc1cccc(-n2c(=O)n(C3CC3)c(=O)c3c(Nc4ccc(I)cc4F)n(C)c(=O)c(C)c32)c1 [Trametinib] (partner 0.02 µM) yielded a relative viability (NCI-H23; first compound 0.01 µM) of 0.321, a relative viability (NCI-H23; first compound 0.03162 µM) of 0.341 and a relative viability (NCI-H23; first compound 0.1 µM) of 0.432. The relative viability (NCI-H23; first compound 0.3162 µM) was 0.4, the relative viability (NCI-H23; first compound 1 µM) was 0.319 and the relative viability (NCI-H1793; first compound 0.01 µM) was 0.456. For the same molecule, the relative viability (NCI-H1793; first compound 0.03162 µM) was 0.405, the relative viability (NCI-H1793; first compound 0.1 µM) was 0.422 and the relative viability (NCI-H1793; first compound 0.3162 µM) was 0.337. It also gave a relative viability (NCI-H1793; first compound 1 µM) of 0.238, a relative viability (LCLC-103H; first compound 0.01 µM) of 0.691 and a relative viability (LCLC-103H; first compound 0.03162 µM) of 0.719. It also gave a relative viability (LCLC-103H; first compound 0.1 µM) of 0.75, a relative viability (LCLC-103H; first compound 0.3162 µM) of 0.68 and a relative viability (LCLC-103H; first compound 1 µM) of 0.579. The relative viability (NCI-H2347; first compound 0.01 µM) was 0.253, the relative viability (NCI-H2347; first compound 0.03162 µM) was 0.261 and the relative viability (NCI-H2347; first compound 0.1 µM) was 0.293. It also gave a relative viability (NCI-H2347; first compound 0.3162 µM) of 0.367, a relative viability (NCI-H2347; first compound 1 µM) of 0.321 and a relative viability (PC-3 [JPC-3]; first compound 0.03162 µM) of 0.698. It also gave a relative viability (PC-3 [JPC-3]; first compound 0.1 µM) of 0.766, a relative viability (PC-3 [JPC-3]; first compound 0.3162 µM) of 0.72 and a relative viability (PC-3 [JPC-3]; first compound 1 µM) of 0.683. It also gave a relative viability (NCI-H727; first compound 0.01 µM) of 0.387, a relative viability (NCI-H727; first compound 0.03162 µM) of 0.412 and a relative viability (NCI-H727; first compound 0.1 µM) of 0.369. It also gave a relative viability (NCI-H727; first compound 0.3162 µM) of 0.362, a relative viability (NCI-H727; first compound 1 µM) of 0.362 and a relative viability (NCI-H2228; first compound 0.01 µM) of 0.449. The relative viability (NCI-H2228; first compound 0.03162 µM) was 0.551, the relative viability (NCI-H2228; first compound 0.1 µM) was 0.311 and the relative viability (NCI-H2228; first compound 0.3162 µM) was 0.543. For the same molecule, the relative viability (NCI-H2228; first compound 1 µM) was 0.309, the relative viability (SW 1573; first compound 0.01 µM) was 0.455 and the relative viability (SW 1573; first compound 0.03162 µM) was 0.539. For the same molecule, the relative viability (SW 1573; first compound 0.1 µM) was 0.605, the relative viability (SW 1573; first compound 0.3162 µM) was 0.516 and the relative viability (SW 1573; first compound 1 µM) was 0.433. The relative viability (LCLC-97TM1; first compound 0.01 µM) was 0.161, the relative viability (LCLC-97TM1; first compound 0.03162 µM) was 0.189 and the relative viability (LCLC-97TM1; first compound 0.1 µM) was 0.216. For the same molecule, the relative viability (LCLC-97TM1; first compound 0.3162 µM) was 0.168, the relative viability (LCLC-97TM1; first compound 1 µM) was 0.185 and the relative viability (NCI-H1650; first compound 0.01 µM) was 0.695. It also gave a relative viability (NCI-H1650; first compound 0.03162 µM) of 0.564, a relative viability (NCI-H1650; first compound 0.1 µM) of 0.783 and a relative viability (NCI-H1650; first compound 0.3162 µM) of 0.598. It also gave a relative viability (NCI-H1650; first compound 1 µM) of 0.457, a relative viability (201T; first compound 0.01 µM) of 0.716 and a relative viability (201T; first compound 0.03162 µM) of 0.725. It also gave a relative viability (201T; first compound 0.1 µM) of 0.742, a relative viability (201T; first compound 0.3162 µM) of 0.742 and a relative viability (201T; first compound 1 µM) of 0.605. For the same molecule, the relative viability (HCC-44; first compound 0.01 µM) was 0.987, the relative viability (HCC-44; first compound 0.03162 µM) was 1.08 and the relative viability (HCC-44; first compound 0.1 µM) was 1.1. It also gave a relative viability (HCC-44; first compound 0.3162 µM) of 1.11, a relative viability (HCC-44; first compound 1 µM) of 0.931 and a relative viability (LU99A; first compound 0.01 µM) of 0.593. For the same molecule, the relative viability (LU99A; first compound 0.03162 µM) was 0.537, the relative viability (LU99A; first compound 0.1 µM) was 0.527 and the relative viability (LU99A; first compound 0.3162 µM) was 0.6. It also gave a relative viability (LU99A; first compound 1 µM) of 0.505, a relative viability (A-427; first compound 0.01 µM) of 0.784 and a relative viability (A-427; first compound 0.03162 µM) of 0.68. It also gave a relative viability (A-427; first compound 0.1 µM) of 0.694, a relative viability (A-427; first compound 0.3162 µM) of 0.595 and a relative viability (A-427; first compound 1 µM) of 0.466. It also gave a relative viability (NCI-H596; first compound 0.01 µM) of 0.865, a relative viability (NCI-H596; first compound 0.03162 µM) of 0.879 and a relative viability (NCI-H596; first compound 0.1 µM) of 0.677. For the same molecule, the relative viability (NCI-H596; first compound 0.3162 µM) was 0.778, the relative viability (NCI-H596; first compound 1 µM) was 0.646 and the relative viability (PC-14; first compound 0.01 µM) was 0.956. For the same molecule, the relative viability (PC-14; first compound 0.03162 µM) was 0.836, the relative viability (PC-14; first compound 0.1 µM) was 1.16 and the relative viability (PC-14; first compound 0.3162 µM) was 0.759. The relative viability (PC-14; first compound 1 µM) was 0.591, the relative viability (SW 900; first compound 0.01 µM) was 0.787 and the relative viability (SW 900; first compound 0.03162 µM) was 0.916. It also gave a relative viability (SW 900; first compound 0.1 µM) of 0.947, a relative viability (SW 900; first compound 0.3162 µM) of 0.665 and a relative viability (SW 900; first compound 1 µM) of 0.522. It also gave a relative viability (COR-L23; first compound 0.01 µM) of 0.579, a relative viability (COR-L23; first compound 0.03162 µM) of 0.593 and a relative viability (COR-L23; first compound 0.1 µM) of 0.667. For the same molecule, the relative viability (COR-L23; first compound 0.3162 µM) was 0.692, the relative viability (COR-L23; first compound 1 µM) was 0.61 and the relative viability (LC-2-ad; first compound 0.01 µM) was 0.874. The relative viability (LC-2-ad; first compound 0.03162 µM) was 1.02, the relative viability (LC-2-ad; first compound 0.1 µM) was 0.992 and the relative viability (LC-2-ad; first compound 0.3162 µM) was 0.967. For the same molecule, the relative viability (LC-2-ad; first compound 1 µM) was 0.841, the relative viability (LK-2; first compound 0.01 µM) was 0.856 and the relative viability (LK-2; first compound 0.03162 µM) was 0.649. The relative viability (LK-2; first compound 0.1 µM) was 0.756, the relative viability (LK-2; first compound 0.3162 µM) was 0.597 and the relative viability (LK-2; first compound 1 µM) was 0.299. The relative viability (H3255; first compound 0.01 µM) was 0.627, the relative viability (H3255; first compound 0.1 µM) was 0.596 and the relative viability (H3255; first compound 0.3162 µM) was 0.711. For the same molecule, the relative viability (H3255; first compound 1 µM) was 0.566, the relative viability (NCI-H460; first compound 0.01 µM) was 0.127 and the relative viability (NCI-H460; first compound 0.03162 µM) was 0.208. The relative viability (NCI-H460; first compound 0.1 µM) was 0.153, the relative viability (NCI-H460; first compound 0.3162 µM) was 0.124 and the relative viability (NCI-H460; first compound 1 µM) was 0.062.
